Measured values: US20050234041A1, “Substituted 1-benzazepines and derivatives thereof” (priority 2001, published 2005)
Converted amounts (≈) assume the structure as drawn. Where two headings read alike, the source gives them in different places.

Assays:
Helicobacter pylori = assay: MIC, broth dilution method, Helicobacter pylori; assay type: cell-based; conditions: for MIC: Helicobacter pylori
Description: (§1) Antibacterial activity can be determined by several standard methods well known by those skilled in the art, including disc diffusions methods, broth dilution minimal inhibitory concentration (MIC) methods, etc., including the detailed method outlined below and as defined by the National Committee of Clinical Laboratory Standards in the United States.
(§2) MIC, Broth Dilution Method
(§3) Cultures of bacteria are initially brought up from the freezer stocks onto chocolate agar plates by streaking a loop-full, then incubated for 18 hours at 35-37° C. in a 5% CO2 incubator.
(§4) Five to 10 colonies are picked from the chocolate agar plate for subculture to Brain-Heart Infusion (BHI) broth or Mueller Hinton broth or BHI containing 4% serum and incubated as described.
(§5) Evaluate the optical density of the organisms in the wells of a 96 well microtiter plate with and without the test compound. The optical density of the organisms in the presence of an active compound will be less than the optical density of the same organism untreated. The activity of the compounds is described as either negative or the lowest concentration inhibiting growth. The results are depicted in Table III, where +/− represents the least activity and ++++ represents the greatest activity. In Table IV, the results are depicted where MIC represents the lowest concentration of antibiotic that inhibits bacterial growth.

Campylobacter jejuni = assay: MIC, broth dilution method, Campylobacter jejuni; assay type: cell-based; conditions: for MIC: Campylobacter jejuni
Description: as §1, §2, §3, §4, §5

[1] = Table IV, MIC, lowest concentration that inhibits bacterial growth, read-out: Antibacterial Activity (micrograms/ml) Helicobacter pylori
[2] = Table IV, MIC, lowest concentration that inhibits bacterial growth, read-out: Antibacterial Activity (micrograms/ml) Campylobacter jejuni
[3] = Table V, read-out: MIC (μg/mL) H. pylori
[4] = Table V, read-out: MIC (μg/mL) C. jejuni
[5] = Table IV, MIC, lowest concentration that inhibits bacterial growth

| MIC (Helicobacter pylori; [1]) | MIC (Campylobacter jejuni; [2]) | SMILES | MIC (Helicobacter pylori; [3]) | MIC (Campylobacter jejuni; [4]) | also measured |
| --- | --- | --- | --- | --- | --- |
| 100 µg/mL (≈ 370 µM) | > 200 µg/mL | COc1cc2c(cc1Br)CCCC(=O)N2 [Example 24, 7-Bromo-8-methoxy-2,3,4,5-tetrahydro-1H-1-benzazepine-2-one] | – | – | melting point: 180 to 182 °C |
| – | – | COc1ccc2c(c1)N(CCOC1CCCCO1)C(=O)C(C(=O)OC(C)(C)C)CC2 (racemic) [Example 221, 3(R,S)-tert-Butoxycarbonyl-8-methoxy-1-[2-(tetrahydro-2H-pyran-2-yl)oxyethyl]-2,3,4,5-tetrahydro-1H-1-benzazepine-2-one] | 15 µg/mL (≈ 35.8 µM) | > 250 µg/mL | – |
| – | – | CCN1C(=O)C(C(=O)OC(C)(C)C)CCc2ccc(O[Si](C)(C)C(C)(C)C)cc21 (racemic) [Example 179, 3(R,S)-tert-Butoxycarbonyl-8-tert-Butyldimethylsilyloxy-1-ethyl-2,3,4,5-tetrahydro-1H-1-benzazepine-2-one] | 16 µg/mL (≈ 38.1 µM) | > 200 µg/mL | – |
| – | – | COc1cc2c(cc1[N+](=O)[O-])CCC(C(=O)OC(C)(C)C)C(=O)N2C(=O)OC(C)(C)C (racemic) [Example 195, 1,3(R,S)-Di(tert-butoxycarbonyl)-8-methoxy-7-nitro-2,3,4,5-tetrahydro-1H-1-benzazepine-2-one] | 4 µg/mL (≈ 9.16 µM) | 60 µg/mL (≈ 137 µM) | melting point: 142 to 144 °C (dec.) |
| – | – | COc1cc2c(cc1[N+](=O)[O-])CCC(C(=O)OC(C)(C)C)C(=O)N2CCOC1CCCCO1 [Example 224, 3(R,S)-tert-Butoxycarbonyl-8-methoxy-7-nitro-1-[2-(tetrahydro-2H-pyran-2-yloxy)]ethyl-2,3,4,5-tetrahydro-1H-1-benzazepine-2-one] | – | – | MIC (μg/mL) H. pylori (Helicobacter pylori; Table V): 60 µg/mL (≈ 129 µM); MIC (μg/mL) C. jejuni (Campylobacter jejuni; Table V): >250, μg/mL |
| – | – | O=C1CCCc2c(O)cccc2N1 [Example 188, 6-Hydroxy-2,3,4,5-tetrahydro-1H-1-benzazepine-2-one] | 32 µg/mL (≈ 181 µM) | > 250 µg/mL | – |
| – | – | CCN1C(=O)C(C(=O)OC(C)(C)C)CCc2cc(N3CCN(C(=O)OC(C)(C)C)CC3)c(OC)cc21 (racemic) [Example 14, 3(R,S)-tert-Butoxycarbonyl-7-[(4-tert-butoxycarbonyl-piperazin)-1-yl]-1-ethyl-8-methoxy-2,3,4,5-tetrahydro-1H-1-benzazepine-2-one] | – | – | Antibacterial Activity (micrograms/ml) Helicobacter pylori (Helicobacter pylori; [5]): 50 micrograms/ml; Antibacterial Activity (micrograms/ml) Campylobacter jejuni (Campylobacter jejuni; [5]): >200 micrograms/ml |
| – | – | CCN1C(=O)CCCc2ccc(N)cc21 [Example 190, 8-Amino-1-ethyl-2,3,4,5-tetrahydro-1H-1-benzazepine-2-one] | 64 µg/mL (≈ 313 µM) | 250 µg/mL (≈ 1220 µM) | – |
| 12.5 µg/mL (≈ 28.7 µM) | > 200 µg/mL | CCN1C(=O)C(Br)(C(=O)OC)CCc2cc(Br)c(OC)cc21 (racemic) [Example 27, 3,7-dibromo-1-ethyl-3(R,S)-methoxycarbonyl-8-methoxy-2,3,4,5-tetrahydro-1H-benzazepine-2-one] | – | – | – |
| – | – | COc1cc2c(cc1N)CCC(C(=O)OC(C)(C)C)C(=O)N2 (racemic) [Example 199, 7-Amino-3(R,S)-tert-butoxycarbonyl-8-methoxy-2,3,4,5-tetrahydro-1H-1-benzazepine-2-one] | 125 µg/mL (≈ 408 µM) | > 250 µg/mL | – |
| – | – | CCN1C(=O)C(C(=O)OC(C)(C)C)CCc2ccc(O)cc21 (racemic) [Example 178, 3(R,S)-tert-Butoxycarbonyl-1-ethyl-8-hydroxy-2,3,4,5-tetrahydro-1H-1-benzazepine-2-one] | 16 µg/mL (≈ 52.4 µM) | > 200 µg/mL | melting point: 154 to 156 °C |
| 125 to 250 µg/mL (≈ 429 to 858 µM) | 50 µg/mL (≈ 172 µM) | CCOC(=O)C1CCc2ccc(OC)cc2N(CC)C1=O (racemic) [Example 4, 3(R,S)-Ethoxycarbonyl-1-ethyl-8-methoxy-2,3,4,5-tetrahydro-1H-1-benzazepine-2-one] | – | – | – |
| – | – | COc1ccc2c(c1)NC(=O)C(C(=O)NO)CC2 (stereo not shown) [Example 197, 3-Hydoxyaminocarbonyl-8-methoxy-2,3,4,5-tetrahydro-1H-1-benzazepine-2-one] | 125 µg/mL (≈ 499 µM) | > 250 µg/mL | – |
| – | – | CCN1C(=O)C(C(=O)O)CCc2cc(N3CCN(c4cc5c(cc4OC)N(CC)C(=O)C(C(=O)O)CC5)CC3)c(OC)cc21 [Example 20, 1,4-Di-[(3(R,S)-carboxyl-1-ethyl-8-methoxy-2-oxo-2,3,4,5-tetrahydro-1H-1-benzazepine)-7-yl]-piperazine] | – | – | Antibacterial Activity (micrograms/ml) Helicobacter pylori (Helicobacter pylori; [5]): 100 micrograms/ml; Antibacterial Activity (micrograms/ml) Campylobacter jejuni (Campylobacter jejuni; [5]): >200 micrograms/ml |
| – | – | COc1ccc2c(c1)N(CC(N)=O)C(=O)C(C(=O)OC(C)(C)C)CC2 (racemic) [Example 201, 1-(Aminocarbonyl)methyl-3(R,S)-tert-butyloxycarbonyl-8-methoxy-2,3,4,5-tetrahydro-1H-1-benzazepine-2-one] | 60 µg/mL (≈ 172 µM) | > 250 µg/mL | – |
| > 200 µg/mL | 50 µg/mL (≈ 228 µM) | CCN1C(=O)CCCc2ccc(OC)cc21 [Example 8, 1-Ethyl-8-methoxy-2,3,4,5-tetrahydro-1H-1-benzazepine-2-one] | – | – | – |
| – | – | CCOC(=O)NC(=O)N(C(=O)NC(=O)OCC)c1cc2c(cc1OC)NC(=O)C(C(=O)OC(C)(C)C)CC2 (racemic) [Example 204, 3(R,S)-tert-Butoxycarbonyl-7-di(ethoxycabonylaminocarbonyl)amino-8-methoxy-2,3,4,5-tetrahydro-1H-1-benzazepine-2-one] | – | – | MIC (μg/mL) H. pylori (Helicobacter pylori; Table V): 60 µg/mL (≈ 112 µM); MIC (μg/mL) C. jejuni (Campylobacter jejuni; Table V): >250, μg/mL |
| – | – | CCN1C(=O)CCCc2ccc([N+](=O)[O-])cc21 [Example 182, 8-Nitro-1-ethyl-2,3,4,5-tetrahydro-1H-1-benzazepine-2-one] | 16 µg/mL (≈ 68.3 µM) | 8 µg/mL (≈ 34.2 µM) | – |
| 100 µg/mL (≈ 335 µM) | > 200 µg/mL | CCN1C(=O)CCCc2cc(Br)c(OC)cc21 [Example 9, 7-Bromo-1-ethyl-8-methoxy-2,3,4,5-tetrahydro-1H-1-benzazepine-2-one] | – | – | melting point: 133 to 135 °C |
| – | – | CCOC(=O)NC(=S)Nc1cc2c(cc1O)NC(=O)C(C(=O)OC(C)(C)C)CC2 (racemic) [Example 215, 3(R,S)-tert-Butoxycarbonyl-7-[(ethoxycarbonylamino)thiocarbonyl)]amino-8-hydroxyl-2,3,4,5-tetrahydro-H-1-benzazepine-2-one] | – | – | MIC (μg/mL) H. pylori (Helicobacter pylori; Table V): 30 µg/mL (≈ 70.8 µM); MIC (μg/mL) C. jejuni (Campylobacter jejuni; Table V): >250, μg/mL |
| – | – | CC(C)(C)OC(=O)C1CCc2ccc(O)cc2N(C(=O)OC(C)(C)C)C1=O (racemic) [Example 183, 1,3(R,S)-Di(tert-butoxycarbonyl)-8-hydroxy-2,3,4,5-tetrahydro-1H-1-benzazepine-2-one] | 64 µg/mL (≈ 170 µM) | 125 µg/mL (≈ 331 µM) | – |
| 50 to 100 µg/mL (≈ 190 to 380 µM) | 100 µg/mL (≈ 380 µM) | CCOC(=O)C1CCc2ccc(OC)cc2NC1=O (racemic) [Example 3, 3(R,S)-Ethoxycarbonyl-8-methoxy-2,3,4,5-tetrahydro-1H-1-benzazepine-2-one] | – | – | melting point: 89 to 91 °C |
| – | – | COc1ccc2c(c1)CCCC(=O)N2 [Example 185, 7-Methoxy-2,3,4,5-tetrahydro-1H-1-benzazepine-2-one] | 125 µg/mL (≈ 654 µM) | 32 µg/mL (≈ 167 µM) | – |
| – | – | COc1ccc2c(c1)N(CC#N)C(=O)C(C(=O)OC(C)(C)C)CC2 (racemic) [Example 196, 3(R,S)-tert-Butoxycarbonyl-1-cyanomethyl-8-methoxy-2,3,4,5-tetrahydro-1H-1-benzazepine-2-one] | 4 µg/mL (≈ 12.1 µM) | 30 µg/mL (≈ 90.8 µM) | – |
| – | – | COc1ccc2c(c1)N(CCN1CCOCC1)C(=O)C(C(=O)OC(C)(C)C)CC2 (racemic) [Example 213, 3(R,S)-tert-Butoxycarboxyl-8-methoxy-1-[2-(4-morpholinyl)]ethyl-2,3,4,5-tetrahydro-1H-1-benzazepine-2-one] | – | – | MIC (μg/mL) H. pylori (Helicobacter pylori; Table V): 125 µg/mL (≈ 309 µM); MIC (μg/mL) C. jejuni (Campylobacter jejuni; Table V): >250, μg/mL |
| – | – | CCN1C(=O)CCCc2cc(N3CCN(C(=O)OC(C)(C)C)CC3)c(OC)cc21 [Example 21, 7-[(4-tert-butoxycarbonylpiperazin)-1-yl]-1-ethyl-8-methoxy-2,3,4,5-tetrahydro-1H-1-benzazepine-2-one] | – | – | Antibacterial Activity (micrograms/ml) Helicobacter pylori (Helicobacter pylori; [5]): 12.5-25 micrograms/ml; Antibacterial Activity (micrograms/ml) Campylobacter jejuni (Campylobacter jejuni; [5]): >200 micrograms/ml |
| – | – | O=C1CCCc2ccccc2N1 [Example 187, 2,3,4,5-tetrahydro-1H-1-benzazepine-2-one] | 64 µg/mL (≈ 397 µM) | > 250 µg/mL | – |

| SMILES | MIC (Helicobacter pylori; [1]) | MIC (Campylobacter jejuni; [2]) | MIC (Helicobacter pylori; [3]) | MIC (Campylobacter jejuni; [4]) | also measured |
| --- | --- | --- | --- | --- | --- |
| CCN1C(=O)C(C(=O)OC(C)(C)C)CCc2cc(N3CCNCC3)c(OC)cc21 (racemic) [Example 18, 3(R,S)-tert-Butoxycarbonyl-1-ethyl-8-methoxy-7-(piperazin-1-yl)-2,3,4,5-tetrahydro-1H-1-benzazepine-2-one] | 50 µg/mL (≈ 124 µM) | > 200 µg/mL | – | – | melting point: 165 °C (dec.) |
| CCN1C(=O)C(C(=O)OC(C)(C)C)CCc2cc(Br)c(OC)cc21 (racemic) [Example 13, 7-Bromo-3(R,S)-tert-butoxycarbonyl-1-ethyl-8-methoxy-2,3,4,5-tetrahydro-1H-1-benzazepine-2-one] | 6.25 to 12.5 µg/mL (≈ 15.7 to 31.4 µM) | > 200 µg/mL | – | – | melting point: 131 to 132 °C |
| COc1ccc2c(c1)N(Cc1cccc(F)c1)C(=O)C(C(=O)OC(C)(C)C)CC2 (racemic) [Example 25, 3(R,S)-tert-Butoxycarbonyl-1-(3-fluorobenzyl)-8-methoxy-2,3,4,5-tetrahydro-1H-1-benzazepine-2-one] | 12.5 µg/mL (≈ 31.3 µM) | > 200 µg/mL | – | – | – |
